# Measured values from US11623924B2, “Modulators of alpha-1 antitrypsin” (Vertex Pharmaceuticals Incorporated, priority 2018, dated 2023).
# Target: T1, NL20 human bronchial epithelial cells expressing human Z-AAT (Homo sapiens, UniProt P01009, E366K)
# T1 construct: expressed in transfected cells; host or cells: NL20 human bronchial epithelial cells (NL20-SI line, doxycycline added)
# Test: AAT Function Assay (MSD Assay NL20-SI Cell Line)
# Assay type: cell-based
# Conditions: functionally active AAT (AAT-hNE complex) in supernatant of NL20 cells expressing human Z-AAT; read-out: NL20 Func. (EC50)
# Summary of the method: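 NL20 cells expressing Z-AAT, seeded 16,000 cells/well, received compound with doxycycline (0.1 μM final) and were incubated overnight at 37° C. Supernatants, diluted 45-fold in total, reacted with excess human neutrophil elastase; AAT-elastase complex captured on anti-AAT plates, detected with Sulfo-tagged anti-elastase by MSD electrochemiluminescence, and quantified against M-AAT standards (0.156-320 ng/mL).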
# T1 sequence (P01009 25-418 E366K): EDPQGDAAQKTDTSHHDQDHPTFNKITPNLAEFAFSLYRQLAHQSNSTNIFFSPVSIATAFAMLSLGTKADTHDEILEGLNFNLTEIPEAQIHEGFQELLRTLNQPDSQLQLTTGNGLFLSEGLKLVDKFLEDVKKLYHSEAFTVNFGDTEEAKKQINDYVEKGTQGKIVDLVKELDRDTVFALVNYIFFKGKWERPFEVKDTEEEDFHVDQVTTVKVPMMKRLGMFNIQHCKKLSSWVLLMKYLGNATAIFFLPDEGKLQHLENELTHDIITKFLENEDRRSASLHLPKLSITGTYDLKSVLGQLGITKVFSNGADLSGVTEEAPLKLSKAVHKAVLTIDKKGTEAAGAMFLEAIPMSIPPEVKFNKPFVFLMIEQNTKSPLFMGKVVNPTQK
row,Compound,EC50
1,O=C(O)[C@H]1CC[C@H](Cc2c(C3CCOCC3)n(-c3ccc(F)cc3)c3cc4cn[nH]c4cc23)CC1 [Compound 119],1.16 to 3 µM
2,O=C(O)[C@H]1CC[C@H](c2c(C3CCOCC3)n(-c3ccc(F)cc3)c3cc4cn[nH]c4cc32)CC1 [Compound 120],< 1.16 µM
3,"O=C(O)C1CC2(C1)CC(c1c(C3CCOCC3)n(-c3ccccc3)c3cc4cn[nH]c4cc13)C2 (stereo not shown) [Compound 123, 6-(5-phenyl-6-tetrahydropyran-4-yl-1H-pyrrolo[2,3-f]indazol-7-yl)spiro[3.3]heptane-2-carboxylic Acid]",1.16 to 3 µM
4,"Cc1cc(F)ccc1-n1c(C2CCOCC2)c(CC2(C(=O)O)CC2)c2cc3[nH]ncc3cc21 [Compound 124, 1-[[5-(4-fluoro-2-methyl-phenyl)-6-tetrahydropyran-4-yl-1H-pyrrolo[2,3-f]indazol-7-yl]methyl]cyclopropanecarboxylic Acid]",1.16 to 3 µM
5,"Cc1cc(-n2c(C3CCOCC3)c(CCC(=O)O)c3cc4[nH]nc(C)c4cc32)ccc1F [Compound 125, 3-[5-(4-fluoro-3-methyl-phenyl)-3-methyl-6-tetrahydropyran-4-yl-1H-pyrrolo[2,3-f]indazol-7-yl]propanoic Acid]",> 3 µM
6,"O=C(O)C1CC2(C1)CC(c1c(C3CCOCC3)n(-c3ccc(F)c(F)c3)c3cc4c(Cl)n[nH]c4cc13)C2 (stereo not shown) [Compound 130, 6-[3-chloro-5-(3,4-difluorophenyl)-6-tetrahydropyran-4-yl-1H-pyrrolo[2,3-f]indazol-7-yl]spiro[3.3]heptane-2-carboxylic Acid]",< 1.16 µM
7,"Cc1c2[nH]ncc2cc2c1c(C1CC3(CC(C(=O)O)C3)C1)c(C1CCOCC1)n2-c1ccc(F)c(F)c1 (stereo not shown) [Compound 131, 6-[5-(3,4-difluorophenyl)-8-methyl-6-tetrahydropyran-4-yl-1H-pyrrolo[2,3-f]indazol-7-yl]spiro[3.3]heptane-2-carboxylic acid]",< 1.16 µM
8,"Cc1c2[nH]ncc2cc2c1c(C1=CC3(C1)CC(C(=O)O)C3)c(C1CCOCC1)n2-c1ccc(F)c(F)c1 (stereo not shown) [Compound 132, 2-[5-(3,4-difluorophenyl)-8-methyl-6-tetrahydropyran-4-yl-1H-pyrrolo[2,3-f]indazol-7-yl]spiro[3.3]hept-2-ene-6-carboxylic Acid]",< 1.16 µM
9,"N#Cc1c2[nH]ncc2cc2c1c(C1CC3(CC(C(=O)O)C3)C1)c(C1CCOCC1)n2-c1ccc(F)c(F)c1 (stereo not shown) [Compound 133, 6-[8-cyano-5-(3,4-difluorophenyl)-6-tetrahydropyran-4-yl-1H-pyrrolo[2,3-f]indazol-7-yl]spiro[3.3]heptane-2-carboxylic acid]",< 1.16 µM
10,"O=C(O)C1CC2(C1)CC(c1c(C3CCOCC3)n(-c3ccc(F)c(F)c3)c3cc4cn[nH]c4c(Br)c13)C2 (stereo not shown) [Compound 134, 6-[8-bromo-5-(3,4-difluorophenyl)-6-tetrahydropyran-4-yl-1H-pyrrolo[2,3-f]indazol-7-yl]spiro[3.3]heptane-2-carboxylic Acid]",< 1.16 µM
11,"Cc1cc(-n2c(C3(C)COC3)cc3cc4[nH]ncc4cc32)ccc1F [Compound 138, 5-(4-fluoro-3-methyl-phenyl)-6-(3-methyloxetan-3-yl)-1H-pyrrolo[2,3-f]indazole]",> 3 µM
12,"Cc1cc(-n2c(C3(C)COC3)c(S(C)(=O)=O)c3cc4[nH]ncc4cc32)ccc1F [Compound 139, 5-(4-fluoro-3-methyl-phenyl)-6-(3-methyloxetan-3-yl)-7-methylsulfonyl-1H-pyrrolo[2,3-f]indazole]",> 3 µM
13,"CC(C)(C)c1c(C#N)c2cc3[nH]ncc3cc2n1-c1ccc(F)cc1 [Compound 143, 6-tert-butyl-5-(4-fluorophenyl)-1H-pyrrolo[2,3-f]indazole-7-carbonitrile]",> 3 µM
14,Cn1cc(CCCc2c(C3CCOCC3)n(-c3ccc(F)cc3)c3cc4cn[nH]c4cc23)cn1 [Compound 144],< 1.16 µM
15,Fc1ccc(-n2c(C3CCOCC3)c(CC3CCOCC3)c3cc4[nH]ncc4cc32)cc1 [Compound 145],< 1.16 µM
16,N#CCCc1c(C2CCOCC2)n(-c2ccc(F)cc2)c2cc3cn[nH]c3cc12 [Compound 146],1.16 to 3 µM
